Source: ChEMBL document CHEMBL2073994, “The multidrug resistance-associated protein 1 transports methoxychlor and protects the seminiferous epithelium from injury” (Toxicol Lett, 2003)

Molecular target: Multidrug resistance-associated protein 1 (Homo sapiens, UniProt P33527)
Test: TP_TRANSPORTER: drug resistance in MRP1-expressing NIH/3T3 cells
Format: functional, cell-based
Conditions: mouse, nih3t3

Sequence of Multidrug resistance-associated protein 1 (P33527 whole entry): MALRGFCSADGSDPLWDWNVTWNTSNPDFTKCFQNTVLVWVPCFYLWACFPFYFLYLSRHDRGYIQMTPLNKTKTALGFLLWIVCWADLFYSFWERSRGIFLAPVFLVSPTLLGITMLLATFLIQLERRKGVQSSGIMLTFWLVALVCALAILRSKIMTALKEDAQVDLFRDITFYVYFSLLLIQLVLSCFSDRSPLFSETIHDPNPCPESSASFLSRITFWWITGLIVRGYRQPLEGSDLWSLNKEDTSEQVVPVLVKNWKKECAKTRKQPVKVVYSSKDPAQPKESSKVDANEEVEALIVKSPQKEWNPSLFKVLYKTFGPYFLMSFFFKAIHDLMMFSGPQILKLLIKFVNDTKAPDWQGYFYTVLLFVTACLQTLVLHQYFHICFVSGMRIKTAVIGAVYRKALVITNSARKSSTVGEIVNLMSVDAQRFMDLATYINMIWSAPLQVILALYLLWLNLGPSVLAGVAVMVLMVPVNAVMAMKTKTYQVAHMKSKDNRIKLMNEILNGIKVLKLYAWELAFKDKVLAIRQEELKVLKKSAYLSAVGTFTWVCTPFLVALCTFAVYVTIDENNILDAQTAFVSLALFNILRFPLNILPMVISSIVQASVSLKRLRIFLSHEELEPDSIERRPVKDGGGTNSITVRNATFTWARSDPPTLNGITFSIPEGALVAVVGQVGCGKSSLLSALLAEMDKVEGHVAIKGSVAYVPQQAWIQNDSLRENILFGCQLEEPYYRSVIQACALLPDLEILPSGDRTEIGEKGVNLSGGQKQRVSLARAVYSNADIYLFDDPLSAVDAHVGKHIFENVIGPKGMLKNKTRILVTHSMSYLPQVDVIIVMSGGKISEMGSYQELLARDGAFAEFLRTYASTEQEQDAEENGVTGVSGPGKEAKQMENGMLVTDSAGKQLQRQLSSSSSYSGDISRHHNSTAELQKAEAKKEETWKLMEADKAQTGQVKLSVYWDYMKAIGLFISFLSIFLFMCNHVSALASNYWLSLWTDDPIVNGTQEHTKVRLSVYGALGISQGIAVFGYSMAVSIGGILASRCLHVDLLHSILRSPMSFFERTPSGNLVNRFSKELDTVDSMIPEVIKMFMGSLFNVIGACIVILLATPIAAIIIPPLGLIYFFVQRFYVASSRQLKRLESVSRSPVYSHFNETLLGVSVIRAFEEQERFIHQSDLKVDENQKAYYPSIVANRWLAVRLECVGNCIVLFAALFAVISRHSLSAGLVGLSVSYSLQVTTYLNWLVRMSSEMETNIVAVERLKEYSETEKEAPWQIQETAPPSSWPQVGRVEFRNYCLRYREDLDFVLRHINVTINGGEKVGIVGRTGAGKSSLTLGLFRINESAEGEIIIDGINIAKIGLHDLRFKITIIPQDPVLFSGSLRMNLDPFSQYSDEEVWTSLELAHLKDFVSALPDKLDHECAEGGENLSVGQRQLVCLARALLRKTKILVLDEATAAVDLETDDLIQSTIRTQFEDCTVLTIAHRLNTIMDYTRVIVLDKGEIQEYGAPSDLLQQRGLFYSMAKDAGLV

| SMILES | Activity |
| --- | --- |
| CC(C)OC(=O)Nc1cccc(Cl)c1 [CHLORPROPHAM] | substrate [] |
| COc1cccc2c1C(=O)c1c(O)c3c(c(O)c1C2=O)C[C@@](O)(C(=O)CO)C[C@@H]3O[C@H]1C[C@H](N)[C@H](O)[C@H](C)O1 [DOXORUBICIN] | substrate [] |
| COP(=S)(OC)Oc1ccc([N+](=O)[O-])c(C)c1 [FENITROTHION] | substrate [] |
| COc1ccc(C(c2ccc(OC)cc2)C(Cl)(Cl)Cl)cc1 [METHOXYCHLOR] | substrate [] |
